Columns and labels:
[1] = target: T1, Melanin-concentrating hormone receptor 1 (Homo sapiens, UniProt Q99705); assay: Displacement of [125I]MCH from human MCHR1 expressed in HEK293 cells; assay type: cell-based
[2] = Metabolic stability assessed as intrinsic clearance in human liver microsomes; assay type: ADME, Microsome
[3] = target: T1, Melanin-concentrating hormone receptor 1; assay: Antagonist activity at human MCHR1 expressed in HEK293 cells assessed as [35S]GTP-gamma-S accumulation; assay type: functional, cell-based
[4] = Clearance in C57BL/6J mouse at 20 umol/kg, iv and 20 umol/kg, po; assay type: ADME, organism-based; details: in vivo
[5] = Volume of distribution at steady state in C57BL/6J mouse at 20 umol/kg, iv and 20 umol/kg, po; assay type: ADME, organism-based; details: in vivo, read-out: Vdss
[6] = Oral bioavailability in C57BL/6J mouse at 20 umol/kg; assay type: ADME, organism-based; details: in vivo
[7] = Half life in C57BL/6J mouse plasma at 20 umol/kg, iv and 20 umol/kg, po; assay type: ADME, organism-based
Mus musculus = assay: Cmax in C57BL/6J mouse brain at 20 umol/kg, iv and 20 umol/kg, po; assay type: ADME, organism-based; details: in vivo
[8] = Tmax in C57BL/6J mouse brain at 20 umol/kg, iv and 20 umol/kg, po; assay type: ADME, organism-based
[9] = Cmax in C57BL/6J mouse plasma at 20 umol/kg, iv and 20 umol/kg, po; assay type: ADME, organism-based
[10] = Tmax in C57BL/6J mouse plasma at 20 umol/kg, iv and 20 umol/kg, po; assay type: ADME, organism-based
[11] = Ratio of Cmax in brain to plasma in C57BL/6J mouse at 20 umol/kg, iv and 20 umol/kg, po; assay type: ADME, organism-based; details: read-out: BPR
[12] = Fraction unbound in C57BL/6J mouse plasma; assay type: ADME, cell-free

T1 sequence (Q99705 whole entry): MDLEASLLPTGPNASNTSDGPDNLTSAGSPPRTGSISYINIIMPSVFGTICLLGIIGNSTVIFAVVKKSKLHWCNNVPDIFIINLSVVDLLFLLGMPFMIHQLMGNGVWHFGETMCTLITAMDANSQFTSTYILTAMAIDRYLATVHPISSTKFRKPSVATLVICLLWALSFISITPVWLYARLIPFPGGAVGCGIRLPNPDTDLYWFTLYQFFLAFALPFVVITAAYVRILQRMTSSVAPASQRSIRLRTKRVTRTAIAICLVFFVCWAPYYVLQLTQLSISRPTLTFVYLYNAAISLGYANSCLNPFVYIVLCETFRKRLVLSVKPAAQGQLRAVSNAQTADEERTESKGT

Row | IC50 [1] [nM] | microsomal CLint [2] [µL/min/mg] | Structure (SMILES) | other results
1 | 80 | 26 | COc1ccc2c(C)cc(N[C@H]3CC[C@H](NCc4cn(C)c5ccc(OCc6ccccc6)cc45)C3)nc2c1 | –
2 | 33 | < 12 | COc1ccc2c(C)cc(N[C@H]3CC[C@H](NCc4cn(C)c5cc(C#N)ccc45)C3)nc2c1 | IC50 [3]: 118 nM
3 | 29 | 30 | CN(C)c1cc(N[C@H]2CCC[C@H](NCc3ccsc3)C2)nc2ccccc12 | IC50 [3]: 97 nM
4 | 571 | – | Clc1ccc2nc(N[C@H]3CCC[C@H](NCc4ccsc4)C3)ccc2c1 | –
5 | 3590 | – | COc1ccc2nc(NCCNCc3ccsc3)cc(C)c2c1 | –
6 | 369 | – | COc1ccc2nc(N[C@H]3C[C@H]4C[C@@H]3[C@@H](NCc3ccsc3)C4)cc(C)c2c1 | –
7 | 15 | 64 | COc1ccc2c(C)cc(N[C@H]3CCC[C@H](NCc4cccc(OC(F)(F)F)c4)C3)nc2c1 | –
8 | 39 | < 12 | COc1ccc2c(C)cc(N[C@H]3CC[C@H](NCc4cn(C)c5ccc(C#N)cc45)C3)nc2c1 | –
9 | 68 | – | c1ccc2nc(N[C@H]3CCC[C@H](NCc4ccsc4)C3)ccc2c1 | IC50 [3]: 234 nM
10 | 50 | 269 | COc1ccc2c(C)cc(N[C@H]3CCC[C@H](NCc4ccc(S(C)(=O)=O)cc4Cl)C3)nc2c1 | –
11 | – | – | COc1cc(N[C@H]2CCC[C@H](NCc3ccsc3)C2)nc2ccc(F)cc12 | IC50 [3]: 90 nM
12 | 9 | < 12 | COc1ccc2c(C)cc(N[C@H]3CC[C@H](NCc4cn(C)c5ccccc45)C3)nc2c1 | IC50 [3]: 85 nM
13 | 2130 | – | COc1ccc2nc(N3CCC(NCc4ccsc4)CC3)cc(C)c2c1 | –
14 | 89 | – | COc1ccc2c(C)cc(N[C@H]3CCC[C@H](NCc4cnccn4)C3)nc2c1 | –
15 | 16 | 227 | COc1ccc2c(C)cc(N[C@H]3CCC[C@H](NCc4ccc5nsnc5c4)C3)nc2c1 | –
16 | 5010 | – | COc1ccc2nc(N[C@@H]3C[C@@H]4C[C@H]3[C@H](NCc3ccsc3)C4)cc(C)c2c1 | –
17 | 15 | – | COc1ccc2nc(NCCCNCc3ccsc3)cc(C)c2c1 | –
18 | 57 | 295 | COc1ccc2nc(N[C@H]3CCC[C@H](NCc4ccsc4)C3)ccc2c1 | IC50 [3]: 25 nM
19 | 2990 | – | COc1ccc2nc(NCC3CCCN(Cc4ccsc4)C3)cc(C)c2c1 (stereo not drawn) | –
20 | 9 | – | COc1cc(N[C@H]2CCC[C@H](NCc3ccsc3)C2)nc2ccccc12 | IC50 [3]: 8 nM
21 | 411 | – | COc1ccc2nc(N[C@@H]3CCC[C@@H](NCc4ccsc4)C3)cc(C)c2c1 | –
22 | 22 | 500 | COc1ccc2c(C)cc(N[C@H]3CCC[C@H](NCc4cncc5ccccc45)C3)nc2c1 | –
23 | 2520 | – | CC(=O)N(C)c1ccc2nc(N[C@H]3CCC[C@H](NCc4ccsc4)C3)ccc2c1 | –
24 | 29 | 20 | COc1ccc2c(C)cc(N[C@H]3CC[C@H](NCc4cn(C)c5cccnc45)C3)nc2c1 | IC50 [3]: 83 nM; clearance [4]: 15 mL/min/kg; Vd [5]: 7.6 L/kg; bioavailability [6]: 100%; half-life [7]: 8.6 h; Cmax (Mus musculus): 0.5 µmol/kg; Tmax [8]: 0.26 h; Cmax [9]: 3.78 µM; Tmax [10]: 24 h; Kp [11]: 0.13; fraction unbound [12]: 0.065
25 | 5 | 12 | COc1ccc2c(C)cc(N[C@H]3CC[C@H](NCc4cn(C)c5ccc(OC(F)F)cc45)C3)nc2c1 | IC50 [3]: 35 nM

Row | IC50 [1] [nM] | microsomal CLint [2] [µL/min/mg] | Structure (SMILES) | other results
26 | 58 | 52 | COc1ccc2c(C)cc(N[C@H]3CCC[C@H](NCc4cn(C(=O)N(C)C)c5ccc(Cl)cc45)C3)nc2c1 | –
27 | 28 | – | COc1ccc(Br)c(CN[C@H]2CCC[C@H](Nc3cc(C)c4ccc(OC)cc4n3)C2)c1 | –
28 | 4800 | 68 | FC(F)(F)c1cc(N[C@H]2CCC[C@H](NCc3ccsc3)C2)nc2ccccc12 | –
29 | 1390 | – | COc1ccc2nc(N[C@H]3CCC[C@H](NCc4ccsc4)C3)c(C)cc2c1 | –
30 | 119 | – | COc1ccc2nc(N[C@H]3CC[C@H](N(C)Cc4ccsc4)C3)cc(C)c2c1 | –
31 | 2300 | – | COc1ccc2nc(N(C)[C@H]3CC[C@H](NCc4ccsc4)C3)cc(C)c2c1 | –
32 | 231 | – | COc1cc(N[C@H]2CCC[C@H](NCc3ccsc3)C2)nc2ccc(OC(C)C)cc12 | –
33 | 9920 | – | N#Cc1cc(N[C@H]2CCC[C@H](NCc3ccsc3)C2)nc2ccccc12 | –
34 | 54 | 38 | COc1cccc2nc(N[C@H]3CCC[C@H](NCc4ccsc4)C3)ccc12 | IC50 [3]: 42 nM
35 | 62 | – | COc1ccc2nc(N[C@H]3CC[C@H](NCc4ccsc4)C3)cc(C)c2c1 | –
36 | 106 | – | COc1ccc2nc(NCCCNC(=O)c3ccsc3)cc(C)c2c1 | –
37 | 10 | – | COc1ccc2c(C)cc(N[C@H]3CCC[C@H](NCc4cccc5nsnc45)C3)nc2c1 | –
38 | 5100 | 15 | Clc1cccc2ccc(N[C@H]3CCC[C@H](NCc4ccsc4)C3)nc12 | –
39 | 61 | 41 | COc1ccc2c(C)cc(N[C@H]3CCC[C@H](NCc4cn(C)c5ccc(Br)cc45)C3)nc2c1 | –
40 | 13 | 59 | COc1ccc2c(C)cc(N[C@H]3CCC[C@H](NCc4ccc(Cl)c(Cl)c4)C3)nc2c1 | –
41 | 0.1 | 32 | COc1ccc2c(C)cc(N[C@H]3CCC[C@H](NCc4ccsc4)C3)nc2c1 | IC50 [3]: 1 nM
42 | 20 | < 12 | COc1ccc2c(C)cc(N[C@H]3CC[C@H](NCc4cn(C)c5c(C#N)cccc45)C3)nc2c1 | IC50 [3]: 127 nM
43 | 71 | 12 | COc1ccc2c(C)cc(N[C@H]3CC[C@H](NCc4cn(C)c5c4ccc4cccnc45)C3)nc2c1 | –
44 | > 33000 | – | COc1ccc2nc(NCCCCNCc3ccsc3)cc(C)c2c1 | –
45 | 178 | – | COc1ccc2c(C)cc(N[C@H]3CCC[C@H](NCc4cn(C)nc4C)C3)nc2c1 | –
46 | 847 | – | CN(C)c1ccc2nc(N[C@H]3CCC[C@H](NCc4ccsc4)C3)ccc2c1 | –
47 | 35 | – | COc1ccc2nc(N[C@H]3C[C@@H]4C[C@H]3[C@@H](NCc3ccsc3)C4)cc(C)c2c1 | –
48 | 3 | – | COc1ccc2nc(N[C@H]3CCC[C@H](NCc4ccsc4)C3)cc(C)c2c1 | –
49 | 7 | 60 | Cc1cc(N[C@H]2CCC[C@H](NCc3ccsc3)C2)nc2ccccc12 | IC50 [3]: 59 nM
